# Structures can show the parent of a compound that is named as a salt.
# Tested on: ICR mice
# Assay: DNP-HSA-induced auricular edema in mice (passive cutaneous anaphylaxis)
# Type: in vivo, mouse
# Settings: FIG. 8 experiment
# Description: Inhibiting Action of Hop Water Extract on DNP-HSA-Induced Auricular Edema in Mice: • Six-week-old ICR mice (male or female; Charles River Laboratories, Japan Inc.) were separated into 4-5 per cage and raised at room temperature (24±2° C.) and 55±15% humidity, with a 12 hour light/dark cycle (light: 8:00-20:00). After preparatory rearing for at least one week, they were provided for the test. A hop pellet water extract, hop leaf water extract or ketotifen fumarate aqueous solution (10 mL/kg) was forcedly administered orally to each test group, while 10 mL/kg of distilled water was forcedly administered orally to the control group. The hop pellet water extract was prepared by adding hop pellets (Czech Saaz) to distilled water to 10% (w/w) and extracting overnight at 4° C., and then centrifuging at 3000 rpm for 10 minutes and filtering. The hop leaf water extract was prepared by adding dry hop leaves (Kokusan hop young leaves) to distilled water to 10% (w/w) and extracting overnight at 4° C., and then centrifuging at 3000 rpm for 10 minutes and filtering. The ketotifen fumarate aqueous solution was prepared by dissolving in distilled water to a concentration of 0.5 mg/mL.
# At 1 hour after oral administration, 20 μL of 10 μg/mL mouse anti-DNP-IgE antibody (Sigma) was intradermally injected into one auricle of each mouse, while 20 μL of physiological saline (PS) was intradermally injected into the other auricle. […] The auricular thickness before antigen administration and 30 minutes after antigen administration was measured three times each using a thickness gauge, and the auricular edema ratio and auricular thickness increase were determined. […] The auricular edema ratio (%) was calculated by the formula: (Mean auricular thickness 30 minutes after antigen administration−mean auricular thickness before antigen administration)×100/mean auricular thickness […], and the auricular thickness increase (mm) was calculated by the formula: Mean auricular thickness 30 minutes after antigen administration−mean auricular thickness before antigen administration.
# [1] = oral 10 mL/kg, intradermal injection of IgE antibody, 30 minutes after antigen
compound,measurement,setting,value
CN1CCC(=C2c3ccccc3CC(=O)c3sccc32)CC1 [ketotifen fumarate],auricular edema ratio compared to the distilled water-administered group (t-test),"ketotifen p<0.05, hop extracts p value of 0.08, critical region 5%",significantly inhibited
same,auricular edema ratio,[1],12.7±5.4%
same,auricular thickness increase,[1],0.045±0.020 mm

# Reference: patent US7910141B2, “Antiallergic composition” (Sapporo Breweries Limited, priority 2005, dated 2011)
